The text below walks through data of US9334523B2, “Substrates and methods for staining live stem cells” (LIFE TECHNOLOGIES CORPORATION, priority 2011, dated 2016).

“Also recorded” adds a separate entry of the source. Like-named read-outs stand apart in the source and are kept apart here.

In data set [1] the test system is H9 ESCs. In words: Live staining of H9 ESCs cultured on MEF feeders with alkaline phosphatase substrates. In kind it is cell-based, human. The conditions noted are these: for concentration range of fluorescence: FIG. 1; for concentration at which robust staining of ESC colonies was achieved: FIG. 2. The method, then: (§1) Here, two test alkaline phosphate substrates, Fluorescein diphosphate-AM ester (FDP-AM) and DDAOP-AM ester were tested for live staining on pluripotent stem cells like H9 ESCs cultured on MEF (mouse embryonic fibroblast) feeder cells. H9 ESCs and other stem cells expressed high alkaline phosphatase. Negative control cells were MEFs and human dermal fibroblasts which express far lower levels of alkaline phosphatase.
(§2) A 10 mM substrate master stock solution (1000×) of fluorescein diphosphate-AM ester (FDP-AM) or DDAOP-AM was prepared (for FDP-AM for e.g., by adding 512.5 μL of tissue culture grade DMSO to 4 mg of the compound (MW: 780.52)).
(§3) Then, 100 μL of 10 mM FDP-AM or DDAOP-AM solution was diluted into 900 μL of DMEM to make 1 mM working stock; or 10 μM working stock was prepared by diluting 10 μl to 10 ml with 100 mM Tris-HCl pH 8.2 or DMEM basal media; or 1 μM working stock was prepared by diluting 10 μL of 1 mM working stock in 10 ml of DMEM, which was used.
(§4) The AP (alkaline phosphatase) live compound with concentrations ranging: >1 μM, 5 μM, 10 μM, 50 μM, 100 μM, and 200 μM, was made by adding 1, 5, 10, 50, 100 and 200 μL of 1 mM FDP-AM or DDAOP-AM working stock. Similarly, the AP live compounds with concentrations ranging: >20 nM, 50 nM, 100 nM, 250 nM, 500 nM, and 800 nM, was made by adding 2, 5, […], 25, 50 and 80 μL of 1 μM FDP-AM working stock. The first dilution was added to an empty plate (no seeded cells) containing DMEM. The final concentration of the substrates, on the cells, were as follows: 50-200 nM for FDP-AM, and 50-200 μM for DDAOP-AM.
(§5) Incubation times were then determined, beginning with 90 seconds. Where no FITC expression was detected, expression was continued for up to 30 minutes. Levamisole was added to the wash buffer to quench the reaction. This step is whoever optional and not necessary. The samples were rinsed with DMEM and visualized.

Data set [2] deals with MEF (mouse embryonic fibroblast) feeder cells. In words: Background staining in negative control cells (MEFs, fibroblasts). The format is cell-based. The method, then: as §1, §2, §3, §4, §5
The test system of data set [3] is differentiating osteoblasts versus AdSCs. In words: Staining of adipose derived mesenchymal stem cells and derived osteoblasts. Conditions: FIG. 8. In kind it is cell-based. The text has this: Alkaline phosphatase is also expressed at high levels in differentiating osteoblasts and mature osteocytes.
Data set [4] deals with mouse ESCs. Put plainly: Live staining of mouse ESCs on MEF feeders. In kind it is cell-based. The conditions noted are these: 200 nM, 30 min. The text has this: Alkaline phosphatase is not specific just for human ESCs but also for murine ESCs. […] The fluorescent signal is robust and visible at lower 5× magnification [FIG. 7].

As to `CC(=O)OCOP(=O)(OCOC(C)=O)Oc1ccc2c(c1)C(C)(C)C1=C(Cl)C(=O)C(Cl)=CC1=N2` [DDAOP-AM, DDAO phosphate-AM ester], in data set [1], the “morphology of stained ESCs” value is listed as “altered morphology”, the “concentration range of fluorescence” value was “micomolar range” and the “concentration at which robust staining of ESC colonies was achieved” value amounted to 200 µM. Besides, the “background staining in negative control MEFs” value (shortened to “background staining”) in data set [2] is on record as “high background expression”. In addition, the “background staining” value in data set [2] (listed as DDAO-AM) was “higher background in negative control cells”. Moreover, the “specificity of staining of osteoblasts versus parent AdSC/MSC” value in data set [3] was “failed to show specific staining; also recorded: does not show specific staining”.

`CC(=O)OCOP(=O)(OCOC(C)=O)Oc1ccc2c(c1)Oc1cc(OP(=O)(OCOC(C)=O)OCOC(C)=O)ccc1C21OC(=O)c2ccccc21` [FDP-AM, Fluorescein diphosphate-AM ester]: in data set [1], the “staining of ESC colonies” value is reported as “successful staining; also recorded: robust staining”, the “time for substrate to diffuse out of the ESC” value is given as “within two hours”, the “viability of cells after the substrate diffuses out” value is on record as “viable overnight” and the “concentration range of fluorescence” value is listed as “nanomolecular range”. Moreover, the “concentration at which robust staining of ESC colonies was achieved” value in data set [1] amounted to 0.2 µM. Moreover, in data set [1] (100-200 nM, 30 minutes), the “proliferation of stained cells after removal of the substrate” value is listed as “continue to proliferate even after removal of the substrate”. In addition, in data set [1] (after staining and removal of the substrate), the “cell-specific marker expression of stained cells” value is given as “retain their cell-specific marker expression; also recorded: retained their marker expression”. Moreover, the “re-staining with a second exposure the following day” value in data set [1] (after washing, culturing overnight, 30 min exposure) is reported as “successfully re-stained”. The “removal of fluorescent stain from stained cells” value in data set [1] (media with substrate replaced with fresh ESC culture media) was “completely removed”. For the same compound, the “background staining” value in data set [2] was “minimal background”. In addition, in data set [4], the “background in MEF feeder cells of mESC culture” value is “minimal background staining; also recorded: little or no background” and the “staining of mESC colonies” value was “specially stains mESC; also recorded: robust staining”. Further, the “specificity of staining of osteoblasts versus parent AdSC/MSC” value in data set [3] is listed as “specific staining of differentiating osteoblasts with minimal background in its parental undifferentiated MSC; also recorded: specific staining for the differentiated phenotype (osteoblast) but not in AdSCs”.

For `O=C1OC2(c3ccc(O)cc3Oc3cc(O)ccc32)c2ccccc21` [fluorescein], the “effect on viability or morphology of stained cells” value in data set [1] is “does not affect the viability or morphology”.
